{"source": "patent US20220323383A1", "about": "“SMALL-MOLECULAR ADJUVANTS AND IMPLEMENTATIONS THEREOF” (JAWAHARLAL NEHRU CENTRE FOR ADVANCED SCIENTIFIC RESEARCH, priority 2019, published 2022)", "format_in_all_cases": "cell-based", "key": {"[1]": {"tested_on": "A. baumannii R674", "assay": "Chequerboard combination efficacy of adjuvant with antibiotics", "in_short": "(§1)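 Two-fold chequerboard broth microdilution of adjuvant plus antibiotic; 6 h cultures in peptone diluted to ~10^5 cfu/mL, incubated 24 h at 37 °C, 150 rpm, OD600 read. Wells matching media control define inhibitory concentrations; FIC index (FICantibiotic+FICadjuvant) and potentiation factor (MIC alone/MIC with adjuvant) calculated.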"}, "[2]": {"tested_on": "K. pneumoniae R3934", "assay": "Chequerboard combination efficacy of adjuvant with antibiotics", "in_short": "as §1"}, "[3]": {"tested_on": "P. aeruginosa R590", "assay": "Chequerboard combination efficacy of adjuvant with antibiotics", "conditions": "P. aeruginosa R590", "in_short": "as §1"}, "[4]": {"tested_on": "E. coli R3336", "assay": "Chequerboard combination efficacy of adjuvant with antibiotics", "in_short": "as §1"}, "[5]": {"tested_on": "A. baumannii R674", "assay": "Individual antibacterial activity (MIC) of adjuvants", "conditions": "Acinetobacter baumannii, R674, read-out: MIC against clinical isolates of bacteria", "in_short": "(§2)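 Broth microdilution used 6-h peptone cultures diluted to about 10^5 cfu/mL, with two-fold serial dilutions of adjuvant alone. Plates were incubated at 37 °C with shaking at 150 rpm. MIC was taken as the lowest concentration giving OD600 equal to the media control at 24 h.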"}, "[6]": {"tested_on": "K. pneumoniae R3934", "assay": "Individual antibacterial activity (MIC) of adjuvants", "conditions": "Klebsiella pneumoniae, R3934, read-out: MIC against clinical isolates of bacteria", "in_short": "as §2"}, "[7]": {"tested_on": "P. aeruginosa R590", "assay": "Individual antibacterial activity (MIC) of adjuvants", "conditions": "Pseudomonas aeruginosa, R590, read-out: MIC against clinical isolates of bacteria", "in_short": "as §2"}, "[8]": {"tested_on": "E. coli R3336", "assay": "Individual antibacterial activity (MIC) of adjuvants", "conditions": "Escherichia coli, R3336, read-out: MIC against clinical isolates of bacteria", "in_short": "as §2"}}, "data": [{"smiles": "NCCCC[C@H](N)C(=O)NCCCCCCN(CCCCCCNC(=O)[C@@H](N)CCCCN)C(=O)Cc1cccc2ccccc12", "note": "[Compound 13, N,N-bis-[(6-(^LLys)amido)hexyl] naphthyl ethanamide tetrakistrifluoroacetate]", "values": [{"measurement": "MIC of antibiotic in presence of adjuvant", "setting": "[1]; antibiotic Ampicillin", "result": "No potentiation"}, {"measurement": "FICI", "setting": "[1]; antibiotic Ciprofloxacin", "result": 0.3125}, {"measurement": "MIC of antibiotic in presence of adjuvant", "setting": "[1]; antibiotic Ciprofloxacin", "result": 64, "unit": "µg/mL"}, {"measurement": "Potentiation factor", "setting": "[1]; antibiotic Ciprofloxacin", "result": 4}, {"measurement": "FICI", "setting": "[1]; antibiotic Erythromycin", "result": 0.156}, {"measurement": "MIC of antibiotic in presence of adjuvant", "setting": "[1]; antibiotic Erythromycin", "result": 16, "unit": "µg/mL"}, {"measurement": "Potentiation factor", "setting": "[1]; antibiotic Erythromycin", "result": 32}, {"measurement": "FICI", "setting": "[1]; antibiotic Fusidic acid", "result": "<0.023"}, {"measurement": "MIC of antibiotic in presence of adjuvant", "setting": "[1]; antibiotic Fusidic acid", "result": "<0.5", "unit": "µg/mL"}, {"measurement": "Potentiation factor", "setting": "[1]; antibiotic Fusidic acid", "result": ">128"}, {"measurement": "FICI", "setting": "[1]; antibiotic Linezolid", "result": 0.1875}, {"measurement": "MIC of antibiotic in presence of adjuvant", "setting": "[1]; antibiotic Linezolid", "result": 32, "unit": "µg/mL"}, {"measurement": "Potentiation factor", "setting": "[1]; antibiotic Linezolid", "result": 8}, {"measurement": "FICI", "setting": "[1]; antibiotic Minocycline", "result": 0.1875}, {"measurement": "MIC of antibiotic in presence of adjuvant", "setting": "[1]; antibiotic Minocycline", "result": 0.5, "unit": "µg/mL"}, {"measurement": "Potentiation factor", "setting": "[1]; antibiotic Minocycline", "result": 16}, {"measurement": "FICI", "setting": "[1]; antibiotic Rifampicin", "result": 0.023}, {"measurement": "MIC of antibiotic in presence of adjuvant", "setting": "[1]; antibiotic Rifampicin", "result": 1, "unit": "µg/mL"}, {"measurement": "Potentiation factor", "setting": "[1]; antibiotic Rifampicin", "result": 64}, {"measurement": "MIC of antibiotic in presence of adjuvant", "setting": "[1]; antibiotic Streptomycin", "result": "No potentiation"}, {"measurement": "FICI", "setting": "[1]; antibiotic Tetracycline", "result": 0.375}, {"measurement": "MIC of antibiotic in presence of adjuvant", "setting": "[1]; antibiotic Tetracycline", "result": 16, "unit": "µg/mL"}, {"measurement": "Potentiation factor", "setting": "[1]; antibiotic Tetracycline", "result": 8}, {"measurement": "FICI", "setting": "[1]; antibiotic Vancomycin", "result": 0.5625}, {"measurement": "MIC of antibiotic in presence of adjuvant", "setting": "[1]; antibiotic Vancomycin", "result": 32, "unit": "µg/mL"}, {"measurement": "Potentiation factor", "setting": "[1]; antibiotic Vancomycin", "result": 2}, {"measurement": "FICI", "setting": "[2]; antibiotic Fusidic acid", "result": "<0.133"}, {"measurement": "MIC of antibiotic in presence of adjuvant", "setting": "[2]; antibiotic Fusidic acid", "result": 4, "unit": "µg/mL"}, {"measurement": "Potentiation factor", "setting": "[2]; antibiotic Fusidic acid", "result": 128}, {"measurement": "FICI", "setting": "[2]; antibiotic Linezolid", "result": "<0.25"}, {"measurement": "MIC of antibiotic in presence of adjuvant", "setting": "[2]; antibiotic Linezolid", "result": 64, "unit": "µg/mL"}, {"measurement": "Potentiation factor", "setting": "[2]; antibiotic Linezolid", "result": ">8"}, {"measurement": "FICI", "setting": "[2]; antibiotic Minocycline", "result": "<0.07"}, {"measurement": "MIC of antibiotic in presence of adjuvant", "setting": "[2]; antibiotic Minocycline", "result": 0.5, "unit": "µg/mL"}, {"measurement": "Potentiation factor", "setting": "[2]; antibiotic Minocycline", "result": 128}, {"measurement": "FICI", "setting": "[2]; antibiotic Rifampicin", "result": "<0.064"}, {"measurement": "MIC of antibiotic in presence of adjuvant", "setting": "[2]; antibiotic Rifampicin", "result": 1, "unit": "µg/mL"}, {"measurement": "Potentiation factor", "setting": "[2]; antibiotic Rifampicin", "result": 512}, {"measurement": "FICI", "setting": "[3]; antibiotic Chloramphenicol", "result": 0.375}, {"measurement": "MIC of antibiotic in presence of adjuvant", "setting": "[3]; antibiotic Chloramphenicol", "result": 32, "unit": "µg/mL"}, {"measurement": "Potentiation factor", "setting": "[3]; antibiotic Chloramphenicol", "result": 4}, {"measurement": "MIC of antibiotic in presence of adjuvant", "setting": "[3]; antibiotic Colistin", "result": "No potentiation"}, {"measurement": "MIC of antibiotic in presence of adjuvant", "setting": "[3]; antibiotic Daptomycin", "result": "No potentiation"}, {"measurement": "FICI", "setting": "[3]; antibiotic Fusidic acid", "result": 0.094}, {"measurement": "MIC of antibiotic in presence of adjuvant", "setting": "[3]; antibiotic Fusidic acid", "result": 2, "unit": "µg/mL"}, {"measurement": "Potentiation factor", "setting": "[3]; antibiotic Fusidic acid", "result": 32}, {"measurement": "FICI", "setting": "[3]; antibiotic Linezolid", "result": 0.1875}, {"measurement": "MIC of antibiotic in presence of adjuvant", "setting": "[3]; antibiotic Linezolid", "result": 32, "unit": "µg/mL"}, {"measurement": "Potentiation factor", "setting": "[3]; antibiotic Linezolid", "result": 8}, {"measurement": "FICI", "setting": "[3]; antibiotic Minocycline", "result": 0.1875}, {"measurement": "MIC of antibiotic in presence of adjuvant", "setting": "[3]; antibiotic Minocycline", "result": 0.5, "unit": "µg/mL"}, {"measurement": "Potentiation factor", "setting": "[3]; antibiotic Minocycline", "result": 16}, {"measurement": "FICI", "setting": "[3]; antibiotic Rifampicin", "result": "<0.019"}, {"measurement": "MIC of antibiotic in presence of adjuvant", "setting": "[3]; antibiotic Rifampicin", "result": "<0.5", "unit": "µg/mL"}, {"measurement": "Potentiation factor", "setting": "[3]; antibiotic Rifampicin", "result": ">256"}, {"measurement": "FICI", "setting": "[3]; antibiotic Tetracycline", "result": 0.266}, {"measurement": "MIC of antibiotic in presence of adjuvant", "setting": "[3]; antibiotic Tetracycline", "result": 4, "unit": "µg/mL"}, {"measurement": "Potentiation factor", "setting": "[3]; antibiotic Tetracycline", "result": 64}, {"measurement": "FICI", "setting": "[4]; antibiotic Fusidic acid", "result": "<0.125"}, {"measurement": "MIC of antibiotic in presence of adjuvant", "setting": "[4]; antibiotic Fusidic acid", "result": 32, "unit": "µg/mL"}, {"measurement": "Potentiation factor", "setting": "[4]; antibiotic Fusidic acid", "result": ">16"}, {"measurement": "MIC of antibiotic in presence of adjuvant", "setting": "[4]; antibiotic Linezolid", "result": "No potentiation"}, {"measurement": "FICI", "setting": "[4]; antibiotic Minocycline", "result": "<0.031"}, {"measurement": "MIC of antibiotic in presence of adjuvant", "setting": "[4]; antibiotic Minocycline", "result": 0.5, "unit": "µg/mL"}, {"measurement": "Potentiation factor", "setting": "[4]; antibiotic Minocycline", "result": 64}, {"measurement": "FICI", "setting": "[4]; antibiotic Rifampicin", "result": "<0.031"}, {"measurement": "MIC of antibiotic in presence of adjuvant", "setting": "[4]; antibiotic Rifampicin", "result": 8, "unit": "µg/mL"}, {"measurement": "Potentiation factor", "setting": "[4]; antibiotic Rifampicin", "result": 64}, {"measurement": "MIC", "setting": "[5]", "result": 512, "unit": "µg/mL"}, {"measurement": "MIC", "setting": "[6]", "result": "> 512", "unit": "µg/mL"}, {"measurement": "MIC", "setting": "[7]", "result": 512, "unit": "µg/mL"}, {"measurement": "MIC", "setting": "[8]", "result": "> 512", "unit": "µg/mL"}]}]}
